Like-named read-outs stand apart in the source and are kept apart here.
Tests used:
[1] = test system: epicholesterol dehydrogenase from Mycobacterium sp. EPI-40; type: biochemical
Method: With 0.1 ml of a 1 mM epicholesterol micelle solution containing 0.33% Triton X-100 are mixed 0.3 ml of 20 mM Tris-HCl buffer (pH 8.0) containing 1 mM dithiothreitol, 0.1 ml of a 10 mM NAD solution, and 0.01 ml of 50 mM magnesium chloride. 0.05 ml of the enzyme solution is added to the mixture, and the mixture is allowed to stand at 37° C. for 2 hours. 0.05 ml of chloroform is added and sterol is extracted to stop the reaction.
Cholestenone produced in the reaction mixture is determined with high performance liquid chromatography. A quantitative determination is made using an ODS column (Inertsil ODS-2 column, 4.6×250 mm, product of GL Science Co.), using methanol as the mobile phase. […] The enzyme activity which produces 1 μmol of cholestenone per minute is defined as 1 unit.

[2] = test system: cholesterol oxidase from Botrytis cinerea CO-33; type: biochemical
Method: To 0.1 ml of 1 mM cholesterol micelle solution containing 0,33% Triton X-100 is added 0.3 ml of 20 mM phosphate/citrate buffer (pH 6.0), 0.05 ml of the enzyme solution is added to the mixture, and the reaction is carried out at 37° C. for 10 minutes. 0.05 ml of chloroform is added thereto to extract sterol, stopping the reaction.
Cholestenone in the reaction mixture is determined with a TLC/FID IATROSCAN (product to Diayatron Co.). […] The enzyme activity which produces 1 μmol of cholestenone per minute is defined as 1 unit.

SMILES: O=C(O)CI [iodoacetic acid]
- residual activity (activity without inhibitor defined as 100%) ([1]; pH 8): 67%
- residual activity (activity without inhibitor defined as 100%) ([2]; pH 6): 89%

SMILES: O=C(O)CN(CCN(CC(=O)O)CC(=O)O)CC(=O)O [ethylenediamine tetraacetate]
- residual activity (activity without inhibitor defined as 100%) ([1]; pH 8): 71%
- residual activity (activity without inhibitor defined as 100%) ([2]; pH 6): 93%

SMILES: O=S(=O)(O)c1cc[c]([Hg][Cl])cc1 [p-chloromercury phenylsulfonate]
- residual activity (activity without inhibitor defined as 100%) ([1]; 1 mM inhibitor added, allowed to stand 2 hours at pH 8.0, 37° C.): 7%
- residual activity (activity without inhibitor defined as 100%) ([2]; 1 mM inhibitor added, reaction for 10 minutes at pH 6.0, 37° C.): 100%
